Assay results as given in PubChem BioAssay (NCI).
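Exposure lasted 48 hours, with cells grown in 96-well plates and compounds tested at five concentrations. TGI marks complete inhibition of growth.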

Columns and labels:
Experiment in all cases: NCI tumour cell line growth inhibition, 48 h
786-0 renal = system: 786-0 renal
A498 renal = system: A498 renal
A549 NSCLC = system: A549 NSCLC
ACHN renal = system: ACHN renal
BT-549 breast = system: BT-549 breast
CAKI-1 renal = system: CAKI-1 renal
CCRF-CEM leukemia = system: CCRF-CEM leukemia
COLO 205 colon = system: COLO 205 colon
DU-145 prostate = system: DU-145 prostate
EKVX NSCLC = system: EKVX NSCLC
HCC-2998 colon = system: HCC-2998 colon
HCT-116 colon = system: HCT-116 colon
HCT-15 colon = system: HCT-15 colon
HL-60(TB) leukemia = system: HL-60(TB) leukemia
HOP-62 NSCLC = system: HOP-62 NSCLC
HOP-92 NSCLC = system: HOP-92 NSCLC
HS 578T breast = system: HS 578T breast
HT29 colon = system: HT29 colon
IGROV1 ovarian = system: IGROV1 ovarian
K-562 leukemia = system: K-562 leukemia
KM12 colon = system: KM12 colon
LOX IMVI melanoma = system: LOX IMVI melanoma
M14 melanoma = system: M14 melanoma
MALME-3M melanoma = system: MALME-3M melanoma
MCF7 breast = system: MCF7 breast
MDA-MB-231 breast = system: MDA-MB-231 breast
MDA-MB-435 = system: MDA-MB-435
MDA-N = system: MDA-N
MOLT-4 leukemia = system: MOLT-4 leukemia
NCI-H226 lung = system: NCI-H226 lung
NCI-H23 lung = system: NCI-H23 lung
NCI-H460 lung = system: NCI-H460 lung
NCI-H522 lung = system: NCI-H522 lung
NCI/ADR-RES ovarian = system: NCI/ADR-RES ovarian
OVCAR-3 ovarian = system: OVCAR-3 ovarian
OVCAR-4 ovarian = system: OVCAR-4 ovarian
OVCAR-5 ovarian = system: OVCAR-5 ovarian
OVCAR-8 ovarian = system: OVCAR-8 ovarian
PC-3 prostate = system: PC-3 prostate
RPMI-8226 leukemia = system: RPMI-8226 leukemia
RXF 393 renal = system: RXF 393 renal
SF-268 CNS = system: SF-268 CNS
SF-295 CNS = system: SF-295 CNS
SF-539 CNS = system: SF-539 CNS
SK-MEL-2 melanoma = system: SK-MEL-2 melanoma
SK-MEL-28 melanoma = system: SK-MEL-28 melanoma
SK-MEL-5 melanoma = system: SK-MEL-5 melanoma
SK-OV-3 ovarian = system: SK-OV-3 ovarian
SN12C renal = system: SN12C renal
SNB-19 CNS = system: SNB-19 CNS
SNB-75 CNS = system: SNB-75 CNS
SR leukemia = system: SR leukemia
SW-620 colon = system: SW-620 colon
T-47D breast = system: T-47D breast
TK-10 renal = system: TK-10 renal
U251 CNS = system: U251 CNS
UACC-257 melanoma = system: UACC-257 melanoma
UACC-62 melanoma = system: UACC-62 melanoma
UO-31 renal = system: UO-31 renal

How did the TGI (786-0 renal) turn out when `C[N+](C)(CCNC(=O)c1cccc2cc3ccccc3nc12)Cc1ccc([N+](=O)[O-])cc1` was run?
Its TGI is greater than 100 µM.

What about the TGI (A498 renal) of the same compound?
Its TGI is greater than 100 µM.

What about the TGI (A549 NSCLC) of the same compound?
The TGI was greater than 100 µM.

And the TGI (ACHN renal)?
The TGI was greater than 100 µM.

And the TGI (BT-549 breast)?
Its TGI is greater than 100 µM.

What about the TGI (CAKI-1 renal) of the same compound?
Its TGI is greater than 100 µM.

What about the TGI (CCRF-CEM leukemia) of the same compound?
The TGI was greater than 100 µM.

And the TGI (COLO 205 colon)?
Its TGI is greater than 100 µM.

What about the TGI (DU-145 prostate) of the same compound?
The TGI was greater than 100 µM.

What about the TGI (EKVX NSCLC) of the same compound?
Its TGI is greater than 100 µM.

And the TGI (HCC-2998 colon)?
The TGI was greater than 100 µM.

What about the TGI (HCT-116 colon) of the same compound?
The TGI was greater than 100 µM.

What about the TGI (HCT-15 colon) of the same compound?
Its TGI is greater than 100 µM.

And the TGI (HL-60(TB) leukemia)?
Its TGI is greater than 100 µM.

And the TGI (HOP-62 NSCLC)?
Its TGI is greater than 100 µM.

And the TGI (HOP-92 NSCLC)?
Its TGI is greater than 100 µM.

What about the TGI (HS 578T breast) of the same compound?
Its TGI is greater than 100 µM.

What about the TGI (HT29 colon) of the same compound?
The TGI was greater than 100 µM.

What about the TGI (IGROV1 ovarian) of the same compound?
The TGI was greater than 100 µM.

And the TGI (K-562 leukemia)?
The TGI was greater than 100 µM.

What about the TGI (KM12 colon) of the same compound?
Its TGI is greater than 100 µM.

And the TGI (LOX IMVI melanoma)?
Its TGI is greater than 100 µM.

And the TGI (M14 melanoma)?
Its TGI is greater than 100 µM.

What about the TGI (MALME-3M melanoma) of the same compound?
The TGI was greater than 100 µM.

And the TGI (MCF7 breast)?
The TGI was greater than 100 µM.

What about the TGI (MDA-MB-231 breast) of the same compound?
The TGI was greater than 100 µM.

What about the TGI (MDA-MB-435) of the same compound?
Its TGI is greater than 100 µM.

What about the TGI (MDA-N) of the same compound?
The TGI was greater than 100 µM.

What about the TGI (MOLT-4 leukemia) of the same compound?
Its TGI is greater than 100 µM.

And the TGI (NCI-H226 lung)?
Its TGI is greater than 100 µM.

And the TGI (NCI-H23 lung)?
Its TGI is greater than 100 µM.

And the TGI (NCI-H460 lung)?
Its TGI is greater than 100 µM.

What about the TGI (NCI-H522 lung) of the same compound?
The TGI was greater than 100 µM.

What about the TGI (NCI/ADR-RES ovarian) of the same compound?
Its TGI is greater than 100 µM.

What about the TGI (OVCAR-3 ovarian) of the same compound?
The TGI was greater than 100 µM.

And the TGI (OVCAR-4 ovarian)?
Its TGI is greater than 100 µM.

And the TGI (OVCAR-5 ovarian)?
Its TGI is greater than 100 µM.

And the TGI (OVCAR-8 ovarian)?
Its TGI is greater than 100 µM.

What about the TGI (PC-3 prostate) of the same compound?
The TGI was greater than 100 µM.

And the TGI (RPMI-8226 leukemia)?
The TGI was greater than 100 µM.

What about the TGI (RXF 393 renal) of the same compound?
Its TGI is greater than 100 µM.

And the TGI (SF-268 CNS)?
The TGI was greater than 100 µM.

What about the TGI (SF-295 CNS) of the same compound?
Its TGI is greater than 100 µM.

What about the TGI (SF-539 CNS) of the same compound?
The TGI was greater than 100 µM.

What about the TGI (SK-MEL-2 melanoma) of the same compound?
Its TGI is greater than 100 µM.

What about the TGI (SK-MEL-28 melanoma) of the same compound?
Its TGI is greater than 100 µM.

And the TGI (SK-MEL-5 melanoma)?
Its TGI is greater than 100 µM.

What about the TGI (SK-OV-3 ovarian) of the same compound?
Its TGI is greater than 100 µM.

And the TGI (SN12C renal)?
The TGI was greater than 100 µM.

And the TGI (SNB-19 CNS)?
Its TGI is greater than 100 µM.

And the TGI (SNB-75 CNS)?
Its TGI is greater than 100 µM.

And the TGI (SR leukemia)?
Its TGI is greater than 100 µM.

What about the TGI (SW-620 colon) of the same compound?
The TGI was greater than 100 µM.

What about the TGI (T-47D breast) of the same compound?
The TGI was greater than 100 µM.

What about the TGI (TK-10 renal) of the same compound?
Its TGI is greater than 100 µM.

What about the TGI (U251 CNS) of the same compound?
The TGI was greater than 100 µM.

And the TGI (UACC-257 melanoma)?
Its TGI is greater than 100 µM.

And the TGI (UACC-62 melanoma)?
The TGI was greater than 100 µM.

And the TGI (UO-31 renal)?
The TGI was greater than 100 µM.

What does the source list for `Cn1c(=O)[nH]c2nccnc2c1=O`?
TGI (786-0 renal): > 10 µM; TGI (A498 renal): > 10 µM; TGI (A549 NSCLC): > 10 µM; TGI (ACHN renal): > 10 µM; TGI (BT-549 breast): > 10 µM; TGI (CAKI-1 renal): > 10 µM; TGI (CCRF-CEM leukemia): > 10 µM; TGI (COLO 205 colon): > 10 µM; TGI (DU-145 prostate): > 10 µM; TGI (EKVX NSCLC): > 10 µM; TGI (HCC-2998 colon): > 10 µM; TGI (HCT-116 colon): > 10 µM; TGI (HCT-15 colon): > 10 µM; TGI (HL-60(TB) leukemia): > 10 µM; TGI (HOP-62 NSCLC): > 10 µM; TGI (HOP-92 NSCLC): > 10 µM; TGI (HS 578T breast): > 10 µM; TGI (HT29 colon): > 10 µM; TGI (IGROV1 ovarian): > 10 µM; TGI (K-562 leukemia): > 10 µM; TGI (KM12 colon): > 10 µM; TGI (LOX IMVI melanoma): > 10 µM; TGI (M14 melanoma): > 10 µM; TGI (MALME-3M melanoma): > 10 µM; TGI (MCF7 breast): > 10 µM; TGI (MDA-MB-231 breast): > 10 µM; TGI (MDA-MB-435): > 10 µM; TGI (MDA-N): > 10 µM; TGI (MOLT-4 leukemia): > 10 µM; TGI (NCI-H226 lung): > 10 µM; TGI (NCI-H23 lung): > 10 µM; TGI (NCI-H460 lung): > 10 µM; TGI (NCI-H522 lung): > 10 µM; TGI (NCI/ADR-RES ovarian): > 10 µM; TGI (OVCAR-3 ovarian): > 10 µM; TGI (OVCAR-4 ovarian): > 10 µM; TGI (OVCAR-5 ovarian): > 10 µM; TGI (OVCAR-8 ovarian): > 10 µM; TGI (PC-3 prostate): > 10 µM; TGI (RPMI-8226 leukemia): > 10 µM; TGI (RXF 393 renal): > 10 µM; TGI (SF-268 CNS): > 10 µM; TGI (SF-295 CNS): > 10 µM; TGI (SF-539 CNS): > 10 µM; TGI (SK-MEL-2 melanoma): > 10 µM; TGI (SK-MEL-28 melanoma): > 10 µM; TGI (SK-MEL-5 melanoma): > 10 µM; TGI (SK-OV-3 ovarian): > 10 µM; TGI (SN12C renal): > 10 µM; TGI (SNB-19 CNS): > 10 µM; TGI (SNB-75 CNS): > 10 µM; TGI (SR leukemia): > 10 µM; TGI (SW-620 colon): > 10 µM; TGI (T-47D breast): > 10 µM; TGI (TK-10 renal): > 10 µM; TGI (U251 CNS): > 10 µM; TGI (UACC-257 melanoma): > 10 µM; TGI (UACC-62 melanoma): > 10 µM; TGI (UO-31 renal): > 10 µM
